{
  "source": "patent US7618975B2",
  "about": "“4-arylamino-quinazolines and analogs as activators of caspases and inducers of apoptosis and the use thereof” (Myriad Pharmaceuticals, Inc., priority 2003, dated 2009)",
  "data": [
    {"test_system": "T-47D cells", "test": "Caspase cascade activation (N-(Ac-DEVD)-N′-ethoxycarbonyl-R110 fluorogenic substrate) in T-47D cells; also: test concentration or dose not given here", "format": "cell-based, Human", "conditions": "T-47D, 24 hr; ratio of net RFU to control", "values": [
      {"smiles": "COc1ccc(N(C)c2ccnc3ccccc23)cc1", "note": "[Example 66, (4-Methoxy-phenyl)-methyl-(quinolin-4-yl)-amine]", "Caspase activity Ratio T-47D (24 hr)": 7.2},
      {"smiles": "COc1ccc(N(C)c2nc(CCl)nc3ccccc23)cc1", "note": "[Example 73, (2-Chloromethyl-quinazolin-4-yl)-(4-methoxy-phenyl)-methyl-amine]", "Caspase activity Ratio T-47D (24 hr)": 6.2},
      {"smiles": "COc1ccc(N(C)c2nc(CO)nc3ccccc23)cc1", "note": "[Example 76]", "Caspase activity Ratio T-47D (24 hr)": 5.6},
      {"smiles": "COc1ccc(N(C)c2nc(CN(C)C)nc3ccccc23)cc1", "note": "[Example 77, (2-Dimethylaminomethyl-quinazolin-4-yl)-(4-methoxy-phenyl)-methyl-amine]", "Caspase activity Ratio T-47D (24 hr)": 5.7},
      {"smiles": "Cc1nc(Nc2ccc(OC(F)F)cc2)c2ccccc2n1", "note": "[Example 78, (4-Difluoromethoxy-phenyl)-(2-methyl-quinazolin-4-yl)-amine]", "Caspase activity Ratio T-47D (24 hr)": 0.6},
      {"smiles": "COc1ccc(Nc2nc(C)nc3ccccc23)cc1F", "note": "[Example 79, (3-Fluoro-4-methoxy-phenyl)-(2-methyl-quinazolin-4-yl)-amine]", "Caspase activity Ratio T-47D (24 hr)": 0.7},
      {"smiles": "Cc1nc(Nc2ccc(OC(C)C)cc2)c2ccccc2n1", "note": "[Example 80, (4-Isopropoxy-phenyl)-(2-methyl-quinazolin-4-yl)-amine]", "Caspase activity Ratio T-47D (24 hr)": 8.3},
      {"smiles": "CCc1ccc(Nc2nc(C)nc3ccccc23)cc1", "note": "[Example 81, (4-Ethyl-phenyl)-(2-methyl-quinazolin-4-yl)-amine]", "Caspase activity Ratio T-47D (24 hr)": 1.9},
      {"smiles": "COc1cc(OC)c(Nc2nc(C)nc3ccccc23)c(OC)c1", "note": "[Example 82, (2-Methyl-quinazolin-4-yl)-(2,4,6-trimethoxy-phenyl)-amine]", "Caspase activity Ratio T-47D (24 hr)": 1.0},
      {"smiles": "Cc1nc(N(C)c2ccc(OC(F)F)cc2)c2ccccc2n1", "note": "[Example 84, (4-Difluoromethoxy-phenyl)-(2-methyl-quinazolin-4-yl)-methyl-amine]", "Caspase activity Ratio T-47D (24 hr)": 6.7},
      {"smiles": "COc1ccc(N(C)c2nc(C)nc3ccccc23)cc1F", "note": "[Example 85, (3-Fluoro-4-methoxy-phenyl)-(2-methyl-quinazolin-4-yl)-methyl-amine]", "Caspase activity Ratio T-47D (24 hr)": 7.6},
      {"smiles": "Cc1nc(N(C)c2ccc(OC(C)C)cc2)c2ccccc2n1", "note": "[Example 86, (4-Isopropoxy-phenyl)-(2-methyl-quinazolin-4-yl)-methyl-amine]", "Caspase activity Ratio T-47D (24 hr)": 6.2},
      {"smiles": "CCc1ccc(N(C)c2nc(C)nc3ccccc23)cc1", "note": "[Example 87, (4-Ethyl-phenyl)-(2-methyl-quinazolin-4-yl)-methyl-amine]", "Caspase activity Ratio T-47D (24 hr)": 6.3},
      {"smiles": "COc1cc(OC)c(N(C)c2nc(C)nc3ccccc23)c(OC)c1", "note": "[Example 88, (2-Methyl-quinazolin-4-yl)-(2,4,6-trimethoxy-phenyl)-methyl-amine]", "Caspase activity Ratio T-47D (24 hr)": 7.6},
      {"smiles": "COc1ccc(N(C)c2nc(Cl)nc3cccc(Cl)c23)cc1", "note": "[Example 90, (2,5-Dichloro-quinazolin-4-yl)-(4-methoxy-phenyl)-methyl-amine]", "Caspase activity Ratio T-47D (24 hr)": 10.6},
      {"smiles": "COc1ccc(N(C)c2nc(C)nc3cccc(OC)c23)cc1", "note": "[Example 91, (5-Methoxy-2-methyl-quinazolin-4-yl)-(4-methoxy-phenyl)-methyl-amine]", "Caspase activity Ratio T-47D (24 hr)": 8.3},
      {"smiles": "COc1ccc(N(C)c2nc(C)nc3ncccc23)cc1", "note": "[Example 92, (4-Methoxy-phenyl)-(2-methyl-pyrido[2,3-d]pyrimidin-4-yl)-methyl-amine]", "Caspase activity Ratio T-47D (24 hr)": 10.1},
      {"smiles": "Cc1nc(N(C)c2ccc(O)cc2)c2ccccc2n1", "note": "[Example 93, (4-Hydroxy-phenyl)-(2-methyl-quinazolin-4-yl)-methyl-amine]", "Caspase activity Ratio T-47D (24 hr)": 11.3},
      {"smiles": "COc1ccc(Nc2nc(C)nc3ccccc23)cn1", "note": "[Example 95, (2-Methyl-quinazolin-4-yl)-(6-methoxy-pyridin-3-yl)-amine]", "Caspase activity Ratio T-47D (24 hr)": 1.0},
      {"smiles": "COc1ccc(Nc2nc(C)nc3ccccc23)c(F)c1", "note": "[Example 96, (2-Fluoro-4-methoxy-phenyl)-(2-methyl-quinazolin-4-yl)-amine]", "Caspase activity Ratio T-47D (24 hr)": 1.0},
      {"smiles": "COc1ccc(N(C)c2nc(C)nc3ccccc23)c(F)c1", "note": "[Example 99, (2-Fluoro-4-methoxy-phenyl)-(2-methyl-quinazolin-4-yl)-methyl-amine]", "Caspase activity Ratio T-47D (24 hr)": 6.9}
    ]},
    {"test_system": "T-47D cells", "test": "Caspase cascade activation (N-(Ac-DEVD)-N′-ethoxycarbonyl-R110 fluorogenic substrate) in T-47D cells; also: test concentration or dose not given here", "format": "cell-based, Human", "conditions": "T-47D, 48 hr; ratio of net RFU to control", "values": [
      {"smiles": "COc1ccc(N(C)c2nc(Cl)nc3ccc(Cl)cc23)cc1", "note": "[Example 60, (2,6-Dichloro-quinazolin-4-yl)-(4-methoxy-phenyl)-methyl-amine]", "Caspase activity Ratio T-47D (48 hr)": 6.5},
      {"smiles": "COc1ccc(N(C)c2nc(N(C)c3ccc(OC)cc3)c3cc(Cl)ccc3n2)cc1", "note": "[Example 61, 6-Chloro-N^2N^4-bis-(4-methoxy-phenyl)-N^2,N^4-dimethyl-quinazoline-2,4-diamine]", "Caspase activity Ratio T-47D (48 hr)": 9.2},
      {"smiles": "COc1ccc(N(C)c2nc(Cl)nc3cc(Cl)ccc23)cc1", "note": "[Example 62, (2,7-Dichloro-quinazolin-4-yl)-(4-methoxy-phenyl)-methyl-amine]", "Caspase activity Ratio T-47D (48 hr)": 12.7},
      {"smiles": "COc1ccc(N(C)c2nc(N(C)c3ccc(OC)cc3)c3c(Cl)cccc3n2)cc1", "note": "[Example 63, 5-Chloro-N^2,N^4-bis-(4-methoxy-phenyl)-N^2,N^4-dimethyl-quinazoline-2,4-diamine]", "Caspase activity Ratio T-47D (48 hr)": 10.9},
      {"smiles": "COc1ccc(N(C)c2nc(OC(C)C)nc3cccc(Cl)c23)cc1", "note": "[Example 64, (5-Chloro-2-isopropoxy-quinazolin-4-yl)-(4-methoxy-phenyl)-methyl-amine]", "Caspase activity Ratio T-47D (48 hr)": 1},
      {"smiles": "COc1ccc(N(C)c2ccnc3ccccc23)cc1", "note": "[Example 66, (4-Methoxy-phenyl)-methyl-(quinolin-4-yl)-amine]", "Caspase activity Ratio T-47D (48 hr)": 12.5},
      {"smiles": "CN(c1ccc2c(c1)OCO2)c1nc(Cl)nc2ccccc12", "note": "[Example 67, (2-Chloro-quinazolin-4-yl)-(3,4-methylenedioxyphenyl)-methyl-amine]", "Caspase activity Ratio T-47D (48 hr)": 12.5},
      {"smiles": "COc1ccc(N(C)c2nc(Cl)nc3ccccc23)cc1OC", "note": "[Example 68, (2-Chloro-quinazolin-4-yl)-(3,4-dimethoxy-phenyl)-methyl-amine]", "Caspase activity Ratio T-47D (48 hr)": 13.1},
      {"smiles": "CN(c1ccc(Oc2ccccc2)cc1)c1nc(Cl)nc2ccccc12", "note": "[Example 69, (2-Chloro-quinazolin-4-yl)-(4-phenoxy-phenyl)-methyl-amine]", "Caspase activity Ratio T-47D (48 hr)": 1},
      {"smiles": "CCCOc1ccc(N(C)c2nc(Cl)nc3ccccc23)cc1", "note": "[Example 70, (2-Chloro-quinazolin-4-yl)-(4-propoxy-phenyl)-methyl-amine]", "Caspase activity Ratio T-47D (48 hr)": 11.3},
      {"smiles": "COc1ccc(Oc2ncnc3ccccc23)cc1", "note": "[Example 71, 4-(4-Methoxy-phenoxy)-quinazoline]", "Caspase activity Ratio T-47D (48 hr)": 6.9},
      {"smiles": "COc1ccc(N(C)c2nc(CCl)nc3ccccc23)cc1", "note": "[Example 73, (2-Chloromethyl-quinazolin-4-yl)-(4-methoxy-phenyl)-methyl-amine]", "Caspase activity Ratio T-47D (48 hr)": 5.7},
      {"smiles": "COc1ccc(N(C)c2nc(CO)nc3ccccc23)cc1", "note": "[Example 76]", "Caspase activity Ratio T-47D (48 hr)": 14.1},
      {"smiles": "COc1ccc(N(C)c2nc(CN(C)C)nc3ccccc23)cc1", "note": "[Example 77, (2-Dimethylaminomethyl-quinazolin-4-yl)-(4-methoxy-phenyl)-methyl-amine]", "Caspase activity Ratio T-47D (48 hr)": 12.3},
      {"smiles": "COc1ccc(N(C)c2nc(-c3ccccc3)nc3ccccc23)cc1", "note": "[Example 83, (4-Methoxy-phenyl)-(2-phenyl-quinazolin-4-yl)-methyl-amine]", "Caspase activity Ratio T-47D (48 hr)": 10.8},
      {"smiles": "COc1ccc(N(C)c2nc(Cl)nc3c(Cl)cccc23)cc1", "note": "[Example 89, (2,8-Dichloro-quinazolin-4-yl)-(4-methoxy-phenyl)-methyl-amine]", "Caspase activity Ratio T-47D (48 hr)": 7.8},
      {"smiles": "CCOc1ccc(Nc2nc(Cl)nc3ccccc23)cc1", "note": "[Example 94, (2-Chloro-quinazolin-4-yl)-(4-ethoxy-phenyl)-amine]", "Caspase activity Ratio T-47D (48 hr)": 1.0},
      {"smiles": "CCOc1ccc(N(C)c2nc(Cl)nc3ccccc23)cc1", "note": "[Example 97, (2-Chloro-quinazolin-4-yl)-(4-ethoxy-phenyl)-methylamine]", "Caspase activity Ratio T-47D (48 hr)": 9.0}
    ]}
  ]
}
